Measured values taken from patent US10815200B2, “18F—tagged inhibitors of prostate specific membrane antigen (PSMA) and their use as imaging agents for prostate cancer” (DEUTSCHES KREBSFORSCHUNGSZENTRUM, priority 2015, dated 2020).

What was measured:
[1] = system: LNCaP tumor xenografts; experiment: MicroPET in mice bearing LNCaP tumor xenografts; type: in vivo; settings: 120-140 min p.i.
Procedure: For the microPET studies, 10-25 MBq of the radiolabeled compounds in a volume of 0.10 ml (60 pmol) were injected via a lateral tail vein into mice bearing LNCaP tumor xenografts. The anesthetized animals (2% sevoflurane, Abbott, Wiesbaden, Germany) were placed in prone position into the Inveon small animal PET scanner (Siemens, Knoxville, Tenn., USA) to perform dynamic microPET scans.
(§1) For in vivo experiments, 8 week old BALB/c nu/nu mice were subcutaneously inoculated into the right trunk with 5×10^6 LNCaP- or PC3-cells in 50% Matrigel. When the size of tumor was approximately 1 cm^3, the radiolabeled compound was injected via the tail vein (ca. 30 MBq, 60 pmol for μPET imaging; ca. 1 MBq, 60 pmol for organ distribution).

[2] = system: LNCaP tumor (PSMA positive); type: in vivo, mice
Procedure: as §1
(§2) The F-18 labeled compounds were injected via tail vein (1-2 MBq per mouse; 60 pmol). At 1 h after injection, the animals were sacrificed. Organs of interest were dissected, blotted dry, and weighed. The radioactivity was measured with a gamma counter (Packard Cobra II, GMI, Minnesota, USA) and calculated as % ID/g.

[3] = system: LNCaP cells; experiment: Specific cell uptake and internalization in LNCaP cells; type: cell-based, human; settings: for Cell surface / Internalised: 30 nM radiolabeled compound, 45 min, 37° C., specific (PMPA block); for Internalized fraction: (Internalized activity/total activity)*100
Procedure: During cell culture, cells were grown at 37° C. in an incubator with humidified air, equilibrated with 5% CO2. […] To determine the specific cell uptake and internalization, 10^5 cells were seeded in poly-L-lysine coated 24-well cell culture plates 24 h before incubation. After washing, the cells were incubated with 30 nM of the radiolabeled compounds for 45 min at 37° C. […] Cellular uptake was terminated by washing 3 times with 1 mL of ice-cold PBS. […] The cells were washed with 1 mL of ice-cold PBS and lysed using 0.3 N NaOH (0.5 mL). The surface-bound and the internalized fractions were measured in a gamma counter. The cell uptake was calculated as percent of the initially added radioactivity bound to 10^5 cells [% ID/10^5 cells].

[4] = system: PC3-tumor (PSMA negative); experiment: Organ distribution in mice carrying a PC3-tumor (PSMA negative); type: in vivo
Procedure: as §1, §2

[5] = system: prostate cancer; experiment: First-in-man PET study in patients suffering from prostate cancer, with histopathology correlation; type: in vivo, human
Procedure: Ten patients (age 60-80 years) suffering from a newly diagnosed high-risk prostate cancer with a gleason score of 7-9 and initial PSA levels of 5-90 ng/ml were injected 100-360 MBq [^18F]-PSMA-1007 and subsequently PET scans were performed on a Biograph mCT Flow scanner (Siemens, Erlangen, Germany) at 1 and 3 h p.i. The results are depicted in FIGS. 17 and 18 as mean values of the SUVmean and SUVmax, respectively. The pictures gained with the PET scans are exemplified in FIGS. 19 and 20 as maximum intensity projections.
Eight of the patients underwent radical prostatectomy with extended pelvic lymphadenectomy. Analyses of prostatectomy specimen were performed blinded to PET-data under the supervision of dedicated uropathologists, according to International Society of Urological Pathology standards (T. H. van der Kwast et al. Mod. Phathol. 2011, 24, 16-25). Representative sections were stained by immunohistochemistry. The sections were deparaffinized in xylene and rehydrated in a graded ethanol series. Antigen retrieval was performed with a steam cooker using retrieval buffer (Target Retrieval Solution, Dako). A mouse monoclonal antibody against PSMA (clone 3E6, Dako) was used at a 1:100 dilution and incubated overnight at 4° C. ad subsequently immunodetection was performed using the Histostain-Plus detection kit (Invitrogen). Stained sections were scanned using a Nanozoomer 2.0-HT Scansystem (Hamamatsu Photonics) to generate digital whole slide images.

[6] = PET/CT dosimetry and kinetics in a healthy volunteer; type: in vivo, human
Procedure: The healthy subject was injected a total activity of 300 MBq and subsequently PET scans were performed on a Biograph mCT Flow scanner (Siemens, Erlangen, Germany) in three blocks. Block 1 contained PET-1 (start 5 min p.i.) to PET-7 (ending 140 min p.i.), block 2 contained PET-8 (start 180 min p.i.) and PET-9 (240-270 min p.i.), block 3 contained PET-10 (440-480 min p.i.). A non-enhanced low-dose CT (estimate 1.43 mSv, respectively) for attenuation correction was performed at the beginning of each block, followed by serial emission scans without moving the volunteer in between.
Kidneys, liver, spleen, whole heart, upper and lower large intestine, parotid glands, submandibular glands and urinary bladder were segmented into volumes of interest (VOIs) using a percentage of maximum threshold between 20% and 30% using the corresponding CT as guidance and then time activity curves (TACs) were calculated for all organs. The TAC for red marrow was derived from the venous blood samples and then the dose for the red marrow calculated (S. Shen et al., JNM 2002, 43, 1245-1253; G. Sgouros et al., JNM 1993, 34, 689-694.). The TAC for the urinary bladder content was a combination of estimated activity in the urinary bladder VOI in PET and activity measured in the voided urine. Curve fitting was applied to all TACs. Kidneys, salivary glands, upper and lower large intestine and heart were fitted with a bi-exponential function. For liver, spleen and urinary bladder content a mono-exponential fit to the last three time points was performed.
Absorbed and effective dose calculations were performed using the ICRP endorsed IDAC 1.0 package which is integrated in QDOSE. Additionally, residence times of all included source organs and remainder body were exported as an OLINDA case file for dose calculation (OLINDA 1.1). The absorbed doses to the salivary glands (parotid and submandibular glands) were determined using the spherical model. The organ masses for the salivary glands were estimated with 25 g for a parotid and 12.5 g for a submandibular gland (ICRP publication 89).

[7] = molecular target: T1, PSMA (Homo sapiens, UniProt Q04609); experiment: Competitive cell binding assay (binding affinity) on LNCaP cells against 68Ga-labeled [Glu-urea-Lys(Ahx)]2-HBED-CC; settings: competition with 68Ga-labeled [Glu-urea-Lys(Ahx)]2-HBED-CC, non-radioactive reference compounds
T1 construct: host or cells: LNCaP cells
Procedure: For binding studies and in vivo experiments LNCaP cells (metastatic lesion of human prostatic adenocarcinoma, ATCC CRL-1740) were cultured in RPMI medium supplemented with 10% fetal calf serum and Glutamax (PAA, Austria). During cell culture, cells were grown at 37° C. in an incubator with humidified air, equilibrated with 5% CO2. The cells were harvested using trypsin-ethylenediaminetetraacetic acid (trypsin-1.5 EDTA; 0.25% trypsin, 0.02% EDTA, all from PAA, Austria) and washed with PBS.
The competitive cell binding assay and internalization experiments were performed as described previously (Eder et al. Bioconjugate Chem. 2012, 23 (4), 688-697). Briefly, the respective cells (10^5 per well) were incubated with the radioligand (^68Ga-labeled [Glu-urea-Lys(Ahx)]2-HBED-CC (Schafer et al. EJNMMI Research 2012, 2:23 doi:10.1186/2191-219X-2-23))) in the presence of 12 different concentrations of analyte (0-5000 nM, 100 μL/well). After incubation, washing was carried out using a multiscreen vacuum manifold (Millipore, Billerica, Mass.). Cell-bound radioactivity was measured using a gamma counter (Packard Cobra II, GMI, Minnesota, USA). The 50% inhibitory concentration (IC50) was calculated by fitting the data using a nonlinear regression algorithm (GraphPad Software). Experiments were performed three times. Reference is made to Table A below.

T1 sequence (Q04609 whole entry): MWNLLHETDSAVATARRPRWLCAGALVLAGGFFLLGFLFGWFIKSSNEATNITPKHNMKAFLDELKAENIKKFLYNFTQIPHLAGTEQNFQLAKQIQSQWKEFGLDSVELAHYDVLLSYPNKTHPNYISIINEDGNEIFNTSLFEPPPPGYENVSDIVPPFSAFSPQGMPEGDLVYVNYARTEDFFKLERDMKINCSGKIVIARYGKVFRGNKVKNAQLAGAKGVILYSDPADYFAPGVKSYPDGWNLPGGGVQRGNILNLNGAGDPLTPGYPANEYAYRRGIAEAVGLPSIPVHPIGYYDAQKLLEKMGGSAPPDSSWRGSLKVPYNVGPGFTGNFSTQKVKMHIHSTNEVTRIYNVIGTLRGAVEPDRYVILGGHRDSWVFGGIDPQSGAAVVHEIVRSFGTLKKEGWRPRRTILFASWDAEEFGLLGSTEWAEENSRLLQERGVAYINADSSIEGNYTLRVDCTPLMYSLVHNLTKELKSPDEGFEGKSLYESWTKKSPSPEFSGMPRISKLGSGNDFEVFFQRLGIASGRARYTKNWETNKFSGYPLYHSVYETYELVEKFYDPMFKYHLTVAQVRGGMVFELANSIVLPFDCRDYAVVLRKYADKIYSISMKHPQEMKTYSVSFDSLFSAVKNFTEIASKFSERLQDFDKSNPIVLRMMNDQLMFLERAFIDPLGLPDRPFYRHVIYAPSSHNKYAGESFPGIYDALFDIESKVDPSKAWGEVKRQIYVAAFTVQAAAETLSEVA

Question: With `O=C(O)CCC(NC(=O)NC(CCCCNC(=O)C(Cc1ccc2ccccc2c1)NC(=O)c1ccc(CNC(=O)C(CCC(=O)O)NC(=O)C(CCC(=O)O)NC(=O)c2ccc([18F])nc2)cc1)C(=O)O)C(=O)O` (stereo not shown) [PSMA-1007, (Glu)-(Urea)-(Lys)-(2-Nal)-(Bn)-(Glu)-(Glu)-FN] as the molecule, how does the “SUVmax of LNCaP tumor” value [1] read?
Answer: The value was 3.1.

Question: What about the “blocking of tumor binding in the blocking experiment” value ([2]; LNCaP tumor mice with PMPA block) of the same molecule?
Answer: The value was “a quantitative blocking of the binding was not observed”.

Question: What about the tumor uptake ([2]; LNCaP tumor mice, 1 h after injection, non-blocked) of the same molecule?
Answer: Its tumor uptake is “about 8.0±2.4 % ID/g”.

Question: What about the “uptake in non-target tissue such as the liver and the small intestine” value ([2]; mouse, in vivo) of the same molecule?
Answer: Its value is “significantly reduced uptake”.

Question: And the Cell surface [3]?
Answer: The Cell surface was 2.7 % ID/10^5 cells.

Question: What about the Internalised [3] of the same molecule?
Answer: The Internalised was 6.5 % ID/10^5 cells.

Question: What about the Internalized fraction [3] of the same molecule?
Answer: Its Internalized fraction is 71%.

Question: And the tumor uptake [4]?
Answer: The tumor uptake was “practically no tumor uptake was observed”.

Question: What about the “correlation of prostatectomy histopathology with PET images” value [5] of the same molecule?
Answer: The value was “nearly perfect correlation”.

Question: What about the “diameter of detected lymph node metastases” value [5] of the same molecule?
Answer: Its value is no less than 1 mm.

Question: And the “specificity (correlation with pelvic lymphadenectomy samples)” value [5]?
Answer: The value was 95%.

Question: And the “tumor-to-background ratios in the primary tumor” value ([5]; calculated from SUVmax)?
Answer: The value was “up to 10”.

Question: And the “effective dose of a PET/CT scan” value ([6]; 200-250 MBq, healthy volunteer)?
Answer: The value was 4.3-5.4 mSv.

Question: What about the “blood pool activity found in the serum” value ([6]; healthy volunteer) of the same molecule?
Answer: Its value is “More than 95%”.

Question: And the effective dose per injected activity ([6]; healthy volunteer)?
Answer: Its effective dose per injected activity is 0.0215 mSv/MBq.

Question: And the clearance pathway ([6]; in comparison to other known PSMA-tracers)?
Answer: Its clearance pathway is “very unique hepatobiliary clearance with very small clearance via the renal pathway”.

Question: What about the “clearance from the blood pool” value ([6]; within the first 3 h after injection, healthy volunteer) of the same molecule?
Answer: The value was “more than 90%”.

Question: For `O=C(O)CCC(NC(=O)NC(CCCCNC(=O)C(Cc1ccc2ccccc2c1)NC(=O)c1ccc(CNC(=O)C(CCC(=O)O)NC(=O)C(CCC(=O)O)NC(=O)c2ccc(F)nc2)cc1)C(=O)O)C(=O)O` [PSMA-1023, (Glu)-(Urea)-(Lys)-(2-Nal)-(Bn)-(D-Glu)-(D-Glu)-FN], which IC50 [7] is on record?
Answer: The IC50 was 8 nM.

Question: With “(Glu)-(Urea)-(Lys)-(2-Nal)-(Bn)-(Gla)-FN [PSMA-1025]” as the molecule, how does the IC50 [7] read?
Answer: The IC50 was 9 nM.

Question: What about the Cell surface [3] of the same molecule?
Answer: Its Cell surface is 4.3 % ID/10^5 cells.

Question: And the Internalised [3]?
Answer: Its Internalised is 3.1 % ID/10^5 cells.

Question: And the Internalized fraction [3]?
Answer: Its Internalized fraction is 42%.

Question: Which IC50 [7] does the source give for `O=C(O)CCC(NC(=O)NC(CCCCNC(=O)C(Cc1ccc2ccccc2c1)NC(=O)c1ccc(CNC(=O)C(CCC(=O)O)NC(=O)C(CCC(=O)O)NC(=O)c2ccc(F)nc2)cc1)C(=O)O)C(=O)O` (stereo not shown) [PSMA-1007, (Glu)-(Urea)-(Lys)-(2-Nal)-(Bn)-(Glu)-(Glu)-FN] here?
Answer: Its IC50 is 5 nM.

Question: Which IC50 [7] does the source give for `O=C(O)CCC(NC(=O)NC(CCCCNC(=O)C(Cc1ccc2ccccc2c1)NC(=O)c1ccc(CNC(=O)C(CNC(=O)c2ccc(F)nc2)S(=O)(=O)O)cc1)C(=O)O)C(=O)O` (stereo not shown) [PSMA-1026, (Glu)-(Urea)-(Lys)-(2-Nal)-(Bn)-(Sala)-FN] here?
Answer: The IC50 was 14 nM.

Question: For `O=C(O)CCC(NC(=O)NC(CCCCNC(=O)C(Cc1ccc2ccccc2c1)NC(=O)CCC(NC(=O)CCC(NC(=O)c1ccc(F)nc1)C(=O)O)C(=O)O)C(=O)O)C(=O)O` (stereo not shown) [PSMA-1022, (Glu)-(Urea)-(Lys)-(2-Nal)-(γGlu)-(γGlu)-FN], which IC50 [7] is on record?
Answer: The IC50 was 8 nM.
